{"source": "ChEMBL document CHEMBL2203036", "about": "“Discovery of 1-[2-(2,4-dimethylphenylsulfanyl)phenyl]piperazine (Lu AA21004): a novel multimodal compound for the treatment of major depressive disorder” (J Med Chem, 2011)", "key": {"Rattus norvegicus [1]": {"test_system": "Rattus norvegicus", "assay": "Target occupancy at SERT in Harlan rat at 5 mg/kg, sc administered QD for 3 days relative to vehicle-treated control", "assay_type": "functional", "conditions": "route subcutaneous"}, "[2]": {"target": "5-hydroxytryptamine receptor 7 (Homo sapiens, UniProt P34969)", "sequence (P34969 whole entry)": "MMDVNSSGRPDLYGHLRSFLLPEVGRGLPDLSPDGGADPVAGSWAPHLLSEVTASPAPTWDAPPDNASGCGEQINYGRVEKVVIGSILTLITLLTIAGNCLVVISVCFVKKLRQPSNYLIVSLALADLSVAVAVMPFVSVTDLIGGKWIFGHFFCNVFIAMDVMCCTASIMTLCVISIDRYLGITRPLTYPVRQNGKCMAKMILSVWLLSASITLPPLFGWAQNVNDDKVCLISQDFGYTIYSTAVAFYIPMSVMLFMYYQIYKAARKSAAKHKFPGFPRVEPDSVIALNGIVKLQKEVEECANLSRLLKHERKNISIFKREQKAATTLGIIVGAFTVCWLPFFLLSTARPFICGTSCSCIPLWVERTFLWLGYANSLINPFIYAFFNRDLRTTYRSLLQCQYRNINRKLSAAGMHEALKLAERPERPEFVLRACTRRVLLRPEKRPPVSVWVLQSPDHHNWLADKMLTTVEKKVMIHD", "assay": "Antagonist activity at human 5HT7 receptor expressed in HEK-CNG cells assessed as effect on cAMP production by fluorescence based assay", "assay_type": "functional, cell-based"}, "[3]": {"target": "5-hydroxytryptamine receptor 6 (Homo sapiens, UniProt P50406)", "sequence (P50406 whole entry)": "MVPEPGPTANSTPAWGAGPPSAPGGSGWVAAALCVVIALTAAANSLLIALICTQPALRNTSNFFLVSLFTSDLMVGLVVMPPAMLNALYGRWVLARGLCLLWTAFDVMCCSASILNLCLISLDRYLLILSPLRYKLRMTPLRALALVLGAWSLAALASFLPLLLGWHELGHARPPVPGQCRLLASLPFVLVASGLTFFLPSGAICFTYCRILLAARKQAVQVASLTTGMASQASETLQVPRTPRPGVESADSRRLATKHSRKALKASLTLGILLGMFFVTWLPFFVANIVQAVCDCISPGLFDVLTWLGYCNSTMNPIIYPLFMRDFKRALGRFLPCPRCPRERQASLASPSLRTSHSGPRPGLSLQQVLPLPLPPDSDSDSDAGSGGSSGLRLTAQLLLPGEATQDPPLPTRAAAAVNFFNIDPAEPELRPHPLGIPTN", "assay": "Binding affinity to human 5HT6 receptor"}, "[4]": {"target": "5-hydroxytryptamine receptor 5A (Homo sapiens, UniProt P47898)", "sequence (P47898 whole entry)": "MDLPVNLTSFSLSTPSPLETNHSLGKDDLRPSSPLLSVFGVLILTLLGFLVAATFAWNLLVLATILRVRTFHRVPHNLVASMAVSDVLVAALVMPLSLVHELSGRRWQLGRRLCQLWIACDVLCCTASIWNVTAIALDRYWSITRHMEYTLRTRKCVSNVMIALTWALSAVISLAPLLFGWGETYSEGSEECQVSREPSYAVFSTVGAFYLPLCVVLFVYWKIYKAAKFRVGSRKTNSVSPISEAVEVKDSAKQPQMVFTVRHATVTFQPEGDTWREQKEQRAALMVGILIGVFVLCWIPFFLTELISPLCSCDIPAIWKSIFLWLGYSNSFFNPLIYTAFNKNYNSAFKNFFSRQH", "assay": "Binding affinity to human 5HT5A receptor"}, "[5]": {"target": "5-hydroxytryptamine receptor 2C (Homo sapiens, UniProt P28335)", "sequence (P28335 whole entry)": "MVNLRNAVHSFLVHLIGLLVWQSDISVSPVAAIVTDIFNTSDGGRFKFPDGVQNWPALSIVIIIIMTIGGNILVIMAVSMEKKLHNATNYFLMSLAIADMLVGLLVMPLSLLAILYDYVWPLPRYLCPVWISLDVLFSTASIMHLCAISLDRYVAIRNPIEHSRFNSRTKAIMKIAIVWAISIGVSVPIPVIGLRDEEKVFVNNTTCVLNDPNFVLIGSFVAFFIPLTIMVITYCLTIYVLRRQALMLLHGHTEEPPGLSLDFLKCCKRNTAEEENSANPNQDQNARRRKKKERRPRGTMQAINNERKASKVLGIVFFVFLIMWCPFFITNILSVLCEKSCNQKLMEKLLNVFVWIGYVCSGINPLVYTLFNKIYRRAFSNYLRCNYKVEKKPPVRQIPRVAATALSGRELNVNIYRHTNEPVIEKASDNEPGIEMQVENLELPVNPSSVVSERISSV", "assay": "Binding affinity to human 5HT2C receptor"}, "[6]": {"target": "Beta-1 adrenergic receptor (Homo sapiens, UniProt P08588)", "sequence (P08588 whole entry)": "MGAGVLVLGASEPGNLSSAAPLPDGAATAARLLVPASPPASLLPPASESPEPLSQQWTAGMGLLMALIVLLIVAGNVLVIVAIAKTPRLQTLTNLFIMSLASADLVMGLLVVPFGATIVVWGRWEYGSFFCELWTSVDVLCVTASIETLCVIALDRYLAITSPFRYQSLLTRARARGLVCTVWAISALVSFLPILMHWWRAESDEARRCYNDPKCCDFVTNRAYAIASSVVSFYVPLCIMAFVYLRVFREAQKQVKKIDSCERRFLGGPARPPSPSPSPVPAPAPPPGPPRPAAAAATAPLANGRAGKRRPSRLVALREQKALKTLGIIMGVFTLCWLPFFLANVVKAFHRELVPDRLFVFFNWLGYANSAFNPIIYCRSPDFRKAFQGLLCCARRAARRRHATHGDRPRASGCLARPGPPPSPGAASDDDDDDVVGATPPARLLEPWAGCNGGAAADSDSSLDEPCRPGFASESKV", "assay": "Binding affinity to human beta 1 adrenergic receptor"}, "Histamine H2 receptor": {"target": "Histamine H2 receptor (Homo sapiens, UniProt P25021)", "sequence (P25021 whole entry)": "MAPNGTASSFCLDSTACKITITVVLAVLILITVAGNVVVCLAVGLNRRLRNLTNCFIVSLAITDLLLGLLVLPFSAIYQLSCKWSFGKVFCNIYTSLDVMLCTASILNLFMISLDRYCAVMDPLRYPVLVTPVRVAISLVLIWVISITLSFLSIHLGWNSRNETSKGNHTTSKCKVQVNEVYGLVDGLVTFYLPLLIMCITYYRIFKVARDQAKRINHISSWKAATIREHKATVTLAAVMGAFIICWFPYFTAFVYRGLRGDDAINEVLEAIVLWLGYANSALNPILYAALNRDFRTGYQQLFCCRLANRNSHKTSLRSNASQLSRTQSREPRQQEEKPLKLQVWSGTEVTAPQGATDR", "assay": "Binding affinity to human histamine H2 receptor"}, "[7]": {"target": "Sodium-dependent serotonin transporter (Homo sapiens, UniProt P31645)", "sequence (P31645 whole entry)": "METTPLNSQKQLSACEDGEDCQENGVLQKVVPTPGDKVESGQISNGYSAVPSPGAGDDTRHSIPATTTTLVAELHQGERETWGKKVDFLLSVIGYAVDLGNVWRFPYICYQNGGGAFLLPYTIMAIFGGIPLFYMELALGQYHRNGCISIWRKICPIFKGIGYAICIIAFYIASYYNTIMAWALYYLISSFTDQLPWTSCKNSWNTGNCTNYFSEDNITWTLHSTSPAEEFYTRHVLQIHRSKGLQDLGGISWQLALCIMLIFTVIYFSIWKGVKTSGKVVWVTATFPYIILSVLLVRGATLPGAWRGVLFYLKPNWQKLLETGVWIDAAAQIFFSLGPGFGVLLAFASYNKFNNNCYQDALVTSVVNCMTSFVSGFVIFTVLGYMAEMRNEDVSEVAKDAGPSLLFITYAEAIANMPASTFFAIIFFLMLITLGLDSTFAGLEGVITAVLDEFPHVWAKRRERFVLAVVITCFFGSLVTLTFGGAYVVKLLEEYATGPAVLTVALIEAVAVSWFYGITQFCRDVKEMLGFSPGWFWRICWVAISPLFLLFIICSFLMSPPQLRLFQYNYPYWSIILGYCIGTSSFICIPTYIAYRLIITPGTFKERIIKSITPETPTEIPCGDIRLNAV", "assay": "Binding affinity to human SERT"}, "[8]": {"assay": "Oral bioavailability in rat at 2 mg/kg", "assay_type": "ADME, organism-based", "conditions": "in vivo"}, "Rattus norvegicus [9]": {"test_system": "Rattus norvegicus", "assay": "Hepatic clearance in rat at 1 mg/kg, iv", "assay_type": "ADME, organism-based, Liver", "design": "dose 1 mg/kg, route intravenous", "conditions": "in vivo"}, "Cytochrome P450 2D6": {"target": "Cytochrome P450 2D6 (Homo sapiens, UniProt P10635)", "sequence (P10635 whole entry)": "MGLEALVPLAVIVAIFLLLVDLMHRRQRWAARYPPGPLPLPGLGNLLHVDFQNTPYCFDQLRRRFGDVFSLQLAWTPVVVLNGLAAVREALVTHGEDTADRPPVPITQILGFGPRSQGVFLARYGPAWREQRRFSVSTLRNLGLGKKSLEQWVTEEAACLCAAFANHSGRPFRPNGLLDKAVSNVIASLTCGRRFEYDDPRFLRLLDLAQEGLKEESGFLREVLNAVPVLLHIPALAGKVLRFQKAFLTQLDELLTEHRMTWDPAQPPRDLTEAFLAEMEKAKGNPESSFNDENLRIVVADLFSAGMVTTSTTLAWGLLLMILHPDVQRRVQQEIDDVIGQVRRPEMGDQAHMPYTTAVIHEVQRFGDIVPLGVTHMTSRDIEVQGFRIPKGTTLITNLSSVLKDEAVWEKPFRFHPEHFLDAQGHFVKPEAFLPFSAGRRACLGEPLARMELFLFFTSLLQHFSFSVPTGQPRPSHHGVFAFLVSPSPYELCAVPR", "assay": "Inhibition of human recombinant CYP2D6 using 3-[2-(N,N-diethyl-N-methylamino)ethyl]-7-methoxy- 4-methylcoumarin after 45 mins by fluorescence spectrophotometric analysis", "assay_type": "ADME"}, "Cytochrome P450 2C9": {"target": "Cytochrome P450 2C9 (Homo sapiens, UniProt P11712)", "sequence (P11712 whole entry)": "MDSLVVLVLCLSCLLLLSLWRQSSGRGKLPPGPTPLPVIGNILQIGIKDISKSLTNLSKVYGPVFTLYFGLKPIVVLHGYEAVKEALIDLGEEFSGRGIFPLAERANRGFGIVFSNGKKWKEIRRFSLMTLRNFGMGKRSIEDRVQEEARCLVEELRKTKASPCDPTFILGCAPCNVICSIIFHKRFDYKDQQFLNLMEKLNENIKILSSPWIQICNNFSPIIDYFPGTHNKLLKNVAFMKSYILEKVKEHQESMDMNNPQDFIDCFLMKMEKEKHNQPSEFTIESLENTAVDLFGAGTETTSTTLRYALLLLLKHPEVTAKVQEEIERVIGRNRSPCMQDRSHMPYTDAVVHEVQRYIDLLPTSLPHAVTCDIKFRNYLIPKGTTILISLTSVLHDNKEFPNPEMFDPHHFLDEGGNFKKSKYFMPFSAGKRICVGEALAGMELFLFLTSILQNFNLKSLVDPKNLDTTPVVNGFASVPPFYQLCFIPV", "assay": "Inhibition of human recombinant CYP2C9 using dibenzylfluorescein after 45 mins by fluorescence spectrophotometric analysis", "assay_type": "ADME"}, "Cytochrome P450 1A2": {"target": "T1, Cytochrome P450 1A2 (Homo sapiens, UniProt P05177)", "T1 sequence (P05177 whole entry)": "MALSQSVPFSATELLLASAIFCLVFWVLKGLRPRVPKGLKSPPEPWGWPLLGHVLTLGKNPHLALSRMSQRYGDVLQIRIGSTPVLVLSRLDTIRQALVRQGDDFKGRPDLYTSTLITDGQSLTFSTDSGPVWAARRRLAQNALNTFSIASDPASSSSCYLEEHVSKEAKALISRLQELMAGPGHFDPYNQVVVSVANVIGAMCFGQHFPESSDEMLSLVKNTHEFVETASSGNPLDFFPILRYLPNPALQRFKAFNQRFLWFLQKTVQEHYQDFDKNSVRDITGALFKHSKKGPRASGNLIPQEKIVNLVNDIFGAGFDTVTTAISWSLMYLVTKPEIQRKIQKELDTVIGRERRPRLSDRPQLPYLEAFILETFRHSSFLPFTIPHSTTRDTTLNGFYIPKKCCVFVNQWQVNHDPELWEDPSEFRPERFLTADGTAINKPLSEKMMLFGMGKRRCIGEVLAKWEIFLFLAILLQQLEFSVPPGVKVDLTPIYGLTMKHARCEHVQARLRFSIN", "assay": "Inhibition of human recombinant CYP1A2 using 7-ethoxy-3-cyanocoumarin after 28 mins by fluorescence spectrophotometric analysis", "assay_type": "ADME"}, "Liver microsomes [10]": {"test_system": "Liver microsomes", "assay": "Intrinsic clearance in rat liver microsomes at 1 uM after 60 mins by LC-MS/MS analysis", "assay_type": "ADME, Microsome", "conditions": "1 h"}, "Liver microsomes [11]": {"test_system": "Liver microsomes", "assay": "Intrinsic clearance in human liver microsomes at 1 uM after 60 mins by LC-MS/MS analysis", "assay_type": "ADME, Microsome", "conditions": "1 h"}, "[12]": {"assay": "Inhibition of NET-mediated [3H]NE in rat synaptosomes by scintillation counting", "assay_type": "subcellular, Brain"}, "[13]": {"target": "T2, 5-hydroxytryptamine receptor 3A (Homo sapiens, UniProt P46098)", "T2 sequence (P46098 whole entry)": "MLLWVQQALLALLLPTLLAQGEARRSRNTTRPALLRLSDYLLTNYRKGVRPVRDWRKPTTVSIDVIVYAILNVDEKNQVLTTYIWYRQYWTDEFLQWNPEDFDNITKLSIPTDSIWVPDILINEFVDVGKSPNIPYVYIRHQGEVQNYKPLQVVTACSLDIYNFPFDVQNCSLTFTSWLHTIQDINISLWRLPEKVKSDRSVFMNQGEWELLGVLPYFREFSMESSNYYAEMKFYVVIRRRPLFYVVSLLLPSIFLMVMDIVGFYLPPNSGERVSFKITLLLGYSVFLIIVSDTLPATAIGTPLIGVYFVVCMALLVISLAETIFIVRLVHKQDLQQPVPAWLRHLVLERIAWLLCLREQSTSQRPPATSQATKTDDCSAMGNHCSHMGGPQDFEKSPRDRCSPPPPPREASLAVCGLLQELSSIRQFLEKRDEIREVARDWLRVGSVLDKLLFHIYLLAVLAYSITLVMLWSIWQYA", "assay": "Displacement of [3H]granisetron from human 5HT3A receptor expressed in HEK293 cells by filter binding assay", "assay_type": "cell-based"}, "[14]": {"target": "T3, 5-hydroxytryptamine receptor 1B (Homo sapiens, UniProt P28222)", "T3 sequence (P28222 whole entry)": "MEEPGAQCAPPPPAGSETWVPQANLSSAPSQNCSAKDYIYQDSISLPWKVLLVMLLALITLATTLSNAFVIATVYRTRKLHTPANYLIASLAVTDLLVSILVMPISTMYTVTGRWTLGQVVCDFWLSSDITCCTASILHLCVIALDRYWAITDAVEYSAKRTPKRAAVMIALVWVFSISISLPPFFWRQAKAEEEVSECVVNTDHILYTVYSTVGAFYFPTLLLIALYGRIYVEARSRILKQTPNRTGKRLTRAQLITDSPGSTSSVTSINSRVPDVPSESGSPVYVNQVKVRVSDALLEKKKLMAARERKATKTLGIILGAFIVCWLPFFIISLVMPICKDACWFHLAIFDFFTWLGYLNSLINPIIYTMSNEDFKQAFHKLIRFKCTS", "assay": "Binding affinity at human 5HT1B receptor"}, "[15]": {"target": "T3, 5-hydroxytryptamine receptor 1B", "assay": "Partial agonist activity at human 5HT1B receptor expressed in CHO cells assessed as [35S]GTPgammaS binding", "assay_type": "functional, cell-based"}, "[16]": {"target": "Sodium-dependent noradrenaline transporter (Homo sapiens) (UniProt P23975)", "assay": "Inhibition of human NET at 1 uM"}, "[17]": {"target": "5-hydroxytryptamine receptor 1A (Rattus norvegicus) (UniProt P19327)", "assay": "Binding affinity to rat 5HT1A receptor"}, "[18]": {"target": "Melanocortin receptor 4 (Homo sapiens) (UniProt P32245)", "sequence (P32245 whole entry)": "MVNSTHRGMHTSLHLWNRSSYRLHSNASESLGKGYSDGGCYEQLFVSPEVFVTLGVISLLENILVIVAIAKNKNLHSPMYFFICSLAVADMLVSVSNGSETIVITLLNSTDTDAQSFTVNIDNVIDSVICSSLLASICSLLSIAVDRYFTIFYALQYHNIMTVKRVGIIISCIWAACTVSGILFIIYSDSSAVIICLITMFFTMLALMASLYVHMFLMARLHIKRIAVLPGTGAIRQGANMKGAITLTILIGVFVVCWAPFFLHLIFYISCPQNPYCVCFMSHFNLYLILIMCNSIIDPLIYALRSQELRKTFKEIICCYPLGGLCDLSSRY", "assay": "Inhibition of human MC4 receptor at 1 uM"}, "[19]": {"target": "T4, 5-hydroxytryptamine receptor 3A (Homo sapiens) (UniProt P46098)", "T4 sequence (whole entry)": "T2 sequence (P46098 whole entry)", "assay": "Agonist activity at human 5HT3A receptor expressed in xenopus oocytes by electrophysiological method relative to 5HT", "conditions": "Oocyte"}, "[20]": {"target": "T3, 5-hydroxytryptamine receptor 1B", "assay": "Partial agonist activity at human 5HT1B receptor expressed in CHO cells assessed as [35S]GTPgammaS binding relative to 5HT"}, "[21]": {"target": "T4, 5-hydroxytryptamine receptor 3A (Homo sapiens)", "assay": "Agonist activity at human 5HT3A receptor expressed in xenopus oocytes by electrophysiological method in presence of ondansetron", "conditions": "Oocyte"}, "Rattus norvegicus [22]": {"test_system": "Rattus norvegicus", "assay": "Antidepression activity in sc dosed Harlan rat assessed as increase in extracellular 5HT level in ventral hippocampus region measured up to 180 mins by microdialysis method"}, "Rattus norvegicus [23]": {"test_system": "Rattus norvegicus", "assay": "Antidepression activity in Harlan rat assessed as increase in extracellular 5HT level in ventral hippocampus region at 2.5 mg/kg, sc measured from 60 to 120 mins by microdialysis method"}, "Rattus norvegicus [24]": {"test_system": "Rattus norvegicus", "assay": "Antidepression activity in Harlan rat assessed as increase in extracellular 5HT level in ventral hippocampus region at 5 to 10 mg/kg, sc measured from 40 to 180 mins by microdialysis method"}}, "note": "The source made the active and inactive calls. The calls are words filed in the database; no cut-off is given here."}
{"smiles": "Cc1ccc(Sc2ccccc2N2CCNCC2)c(C)c1.Cl", "values": [{"measurement": "Occ", "setting": "Rattus norvegicus [1]", "value": 43, "unit": "%"}, {"measurement": "Ki", "setting": "[2]", "value": 450, "unit": "nM"}, {"measurement": "Ki", "setting": "[3]", "value": 330, "unit": "nM"}, {"measurement": "Ki", "setting": "[4]", "value": 220, "unit": "nM"}, {"measurement": "Ki", "setting": "[5]", "value": 180, "unit": "nM"}, {"measurement": "Ki", "setting": "[6]", "value": 46, "unit": "nM"}, {"measurement": "Ki", "setting": "Histamine H2 receptor", "value": 180, "unit": "nM"}, {"measurement": "Ki", "setting": "[7]", "value": 1.6, "unit": "nM"}, {"measurement": "bioavailability", "setting": "[8]", "value": 16, "unit": "%"}, {"measurement": "CLH", "setting": "Rattus norvegicus [9]", "value": 7.1, "unit": "L/h/kg"}, {"measurement": "IC50", "setting": "Cytochrome P450 2D6", "value": 9.8, "unit": "µM"}, {"measurement": "IC50", "setting": "Cytochrome P450 2C9", "value": 39, "unit": "µM"}, {"measurement": "IC50", "setting": "Cytochrome P450 1A2", "value": 40, "unit": "µM"}, {"measurement": "CLH", "setting": "Liver microsomes [10]", "value": 55, "unit": "mL/min"}, {"measurement": "CLH", "setting": "Liver microsomes [11]", "value": 0.5, "unit": "L/min"}, {"measurement": "IC50", "setting": "[12]", "value": 140, "unit": "nM"}, {"measurement": "Ki", "setting": "[13]", "value": 23, "unit": "nM"}, {"measurement": "Ki", "setting": "[14]", "value": 33, "unit": "nM"}, {"measurement": "EC50", "setting": "[15]", "value": 120, "unit": "nM"}, {"measurement": "inhibition", "setting": "[16]", "value": 88, "unit": "%"}, {"measurement": "Ki", "setting": "[17]", "value": 230, "unit": "nM"}, {"measurement": "inhibition", "setting": "[18]", "value": 51, "unit": "%"}, {"measurement": "Efficacy", "setting": "[19]", "value": 64, "unit": "%"}, {"measurement": "Efficacy", "setting": "[20]", "value": 55, "unit": "%"}, {"measurement": "Activity", "setting": "[21]", "value": "inactive"}, {"measurement": "Activity", "setting": "Rattus norvegicus [22]", "value": "Dose-dependent effect"}, {"measurement": "Activity", "setting": "Rattus norvegicus [23]", "value": "Active"}, {"measurement": "Activity", "setting": "Rattus norvegicus [24]", "value": "Active"}]}
